Data reported in patent publication US8420853B2, “Derivatives of cyclic compound and the use thereof” (Wonkisopharm Co., Ltd, priority 2006, dated 2013).

System: mouse melanoma B-16 cells
Assay: Inhibitory effect on melanin synthesis
Format: cell-based
Protocol: In order to confirm the inhibition effect of the compounds prepared in Examples 1 to 31 and hydroquinone on melanin biosynthesis, the experiment was performed with the procedure described in the literature (Lotan R., Lotan D. Cancer Res., 40, pp. 3345-3350, 1980).
[…] The medium was cultured for 3 days and the cultured cells were separated from the medium by treating with trypsin. The separated cells were centrifuged and the melanin was extracted therefrom. The extract was treated with 1 ml of sodium hydroxide solution (1N) and boiled for 10 mins to resolve the melanin. Optical density (OD) value was measured 3 times at 475 nm by a spectrophotometer and the amount of melanin was expressed by absorbance(OD)/1×10^6 cells. The inhibitory effect of melanin (%) was calculated from the melanin synthesis as compared with the control group.

[1] = Mus musculus, B16, 72 h, concentration 5 ug/ml, B-16 cells cultured 3 days, vs control group
[2] = Mus musculus, B16, 72 h, concentration 20 ug/ml, B-16 cells cultured 3 days, vs control group
[3] = concentration 5 ug/ml, B-16 cells cultured 3 days, vs control group
[4] = concentration 20 ug/ml, B-16 cells cultured 3 days, vs control group
[5] = mouse B-16 melanoma cells, statement in words

Compound	inhibition at 5 µg/mL [1]	inhibition at 20 µg/mL [2]	also measured
CCCC(=O)O[C@@H]1CCCC[C@H]1OC(=O)CCC (relative stereo) [Example 1, butyric acid 2-butyryloxy-trans-cyclohexyl ester]	30%	55%	–
CCCCC(=O)O[C@@H]1CCCC[C@H]1OC(=O)CCCC (relative stereo) [Example 2, pentanoic acid 2-pentanoyloxy-trans-cyclohexyl ester]	45%	78%	–
CC(C)=CC(=O)O[C@@H]1CCCC[C@H]1OC(=O)C=C(C)C (relative stereo) [Example 3, 3-methyl-2-butenoic acid 2-(3-methyl-2-butenoyloxy)-trans-cyclohexyl ester]	39%	72%	–
CCCCCC(=O)O[C@@H]1CCCC[C@H]1OC(=O)CCCCC (relative stereo) [Example 4, hexanoic acid 2-hexanoyloxy-trans-cyclohexyl ester]	41%	71%	–
CCCCCCC(=O)O[C@@H]1CCCC[C@H]1OC(=O)CCCCCC (relative stereo) [Example 5, heptanoic acid 2-heptanoyloxy-trans-cyclohexyl ester]	35%	56%	–
CCCCCCCC(=O)O[C@@H]1CCCC[C@H]1OC(=O)CCCCCCC (relative stereo) [Example 6, octanoic acid 2-octanoyloxy-trans-cyclohexyl ester]	30%	51%	–
CCCCC(CC)C(=O)O[C@@H]1CCCC[C@H]1OC(=O)C(CC)CCCC (relative stereo) [Example 7, 2-ethyl-hexanoic acid 2-(2-ethyl-hexanoyloxy)-trans-cyclohexyl ester]	42%	69%	–
CCCCCCCCC(=O)O[C@@H]1CCCC[C@H]1OC(=O)CCCCCCCC (relative stereo) [Example 8, nonanoic acid 2-nonanoyloxy-trans-cyclohexyl ester]	21%	47%	–
CCCCCCCCCC(=O)O[C@@H]1CCCC[C@H]1OC(=O)CCCCCCCCC (relative stereo) [Example 9, decanoic acid 2-decanoyloxy-trans-cyclohexyl ester]	19%	39%	–
CCCCCCCCCCCC(=O)O[C@@H]1CCCC[C@H]1OC(=O)CCCCCCCCCCC (relative stereo) [Example 10, lauric acid 2-lauroyloxy-trans-cyclohexyl ester]	9%	15%	–
CC(C)=CC(=O)O[C@@H]1CCC[C@H]1OC(=O)C=C(C)C (relative stereo) [Example 12, 3-methyl-2-butenoic acid 2-(3-methyl-2-butenoyloxy)-trans-cyclopentyl ester]	27%	56%	–
CCCCCCCC(=O)O[C@@H]1CCC[C@H]1OC(=O)CCCCCCC (relative stereo) [Example 13, octanoic acid 2-octanoyloxy-trans-cyclopentyl ester]	30%	54%	–
CCCCC(CC)C(=O)O[C@@H]1CCC[C@H]1OC(=O)C(CC)CCCC (relative stereo) [Example 14, 2-ethyl-hexanoic acid 2-(2-ethyl-hexanoyloxy)-trans-cyclopentyl ester]	31%	57%	–
C=CCCC(=O)O[C@@H]1CCCC[C@H]1OC(=O)CCC=C (relative stereo) [Example 15, 4-pentenoic acid 2-(4-pentenoyloxy)-trans-cyclohexyl ester]	39%	72%	–
CC(C)=CC(=O)O[C@H]1CCCC[C@H]1OC(=O)C=C(C)C [Example 11, 3-methyl-2-butenoic acid 2-(3-methyl-2-butenoyloxy)-cis-cyclohexyl ester]	31%	54%	–
CC(C)=CC(=O)Oc1ccccc1OC(=O)C=C(C)C [Example 16, 3-methyl-2-butenoic acid 2-(3-methyl-2-butenoyloxy)-phenyl ester]	15%	27%	–

Compound	inhibition at 5 µg/mL [1]	inhibition at 20 µg/mL [2]	also measured
CCCCCCCC(=O)Oc1ccccc1OC(=O)CCCCCCC [Example 17, octanoic acid 2-octanoyloxy-phenyl ester]	9%	18%	–
CC(C)=CC(=O)Oc1cc2ccccc2cc1OC(=O)C=C(C)C [Example 18, 3-methyl-2-butenoic acid 3-(3-methyl-2-butenoyloxy)-naphthalen-2-yl ester]	47%	67%	–
CCCCCCCC(=O)Oc1cc2ccccc2cc1OC(=O)CCCCCCC [Example 19, octanoic acid 3-octanoyloxy-naphthalen-2-yl ester]	39%	61%	–
CCCCC(CC)C(=O)Oc1cc2ccccc2cc1OC(=O)C(CC)CCCC (stereo not drawn) [Example 20, 2-ethyl-hexanoic acid 3-(2-ethyl-hexanoyloxy)-naphthalen-2-yl ester]	29%	55%	–
CCCCCCCC(=O)Oc1cccnc1OC(=O)CCCCCCC [Example 21, octanoic acid 3-octanoyloxy-pyridin-2-yl ester]	48%	81%	–
CC(C)=CC(=O)OC1COCC1OC(=O)C=C(C)C (stereo not drawn) [Example 22, 3-methyl-2-butenoic acid 4-(3-methyl-2-butenoyloxy)-tetrahydrofuran-3-yl ester]	27%	49%	–
CCCCCCCC(=O)OC1CCCC(OC(=O)CCCCCCC)C1OC(=O)CCCCCCC (stereo not drawn) [Example 24, octanoic acid 2,3-bis-octanoyloxy-cyclohexyl ester]	39%	69%	–
CCCC(=O)OC1C(OC(=O)CCC)C(OC(=O)CCC)C(OC(=O)CCC)C(OC(=O)CCC)C1OC(=O)CCC (stereo not drawn) [Example 25, myo-inositol hexa-O-butanoate]	–	–	Melanin synthesis inhibition (%) [3]: 27%; Melanin synthesis inhibition (%) [4]: 59%
CC(C)=CC(=O)OC1OC[C@@H](OC(=O)C=C(C)C)[C@@H](OC(=O)C=C(C)C)[C@@H]1OC(=O)C=C(C)C (stereo partly drawn) [Example 26]	–	–	Melanin synthesis inhibition (%) [3]: 31%; Melanin synthesis inhibition (%) [4]: 61%
CCCC(=O)OC[C@H]1O[C@H](OC)[C@H](OC(=O)CCC)[C@@H](OC(=O)CCC)[C@@H]1OC(=O)CCC [Example 27, methyl-alpha-D-glucose tetra-O-butanoate]	–	–	Melanin synthesis inhibition (%) [3]: 29%; Melanin synthesis inhibition (%) [4]: 49%
CC(C)CCOC1CCCCC1OCCC(C)C (stereo not drawn) [Example 28, 1,2-bis-(3-methyl-buthoxy)-cyclohexane]	–	–	Melanin synthesis inhibition (%) [3]: 25%; Melanin synthesis inhibition (%) [4]: 49%
CCCCCOC1CCCCC1OCCCCC (stereo not drawn) [Example 29, 1,2-bis-pentyloxy-cyclohexane]	22%	43%	–
CCCCCCOC1CCCCC1OCCCCCC (stereo not drawn) [Example 30, 1,2-bis-hexyloxy-cyclohexane]	18%	41%	–
CCCCCCCCOC1CCCCC1OCCCCCCCC (stereo not drawn) [Example 31, 1,2-bis-octyloxy-cyclohexane]	15%	31%	–
Oc1ccc(O)cc1 [Hydroquinone, reference compound]	–	–	inhibition at 1 µg/mL (Mus musculus, B16, 72 h, concentration 1 ug/ml, B-16 cells cultured 3 days, vs control group): 45%; Melanin synthesis inhibition (%) [3]: Cell death; cytotoxicity [5]: high levels of cytotoxicity; inhibitory activity of melanin synthesis [5]: potent inhibitory activity at low concentration
butyric acid 3-methyl-2-butenoic acid 2,3-bis-(3-methyl-2-butenoyloxy)-phenyl ester [Example 23]	–	–	Melanin synthesis inhibition (%) [3]: 48%; Melanin synthesis inhibition (%) [4]: 75%
